# According to patent US10722441B2, “Noreugenin glycoside derivatives” (Universitaet Hamburg, priority 2016, dated 2020):
# Test system: reconstituted human epidermis with melanocytes of phototype II
# Assay: Tanning properties in reconstituted human epidermis with melanocytes; semiquantification of melanin content by Fontana-Masson staining and image analysis
# Assay type: cell-based
# Settings: for Change of melanin content / pigmentation, in words: IBMX 100 μM vs untreated controls
# Method: The epidermis with melanocytes of phototype II is reconstituted in an air/liquid interface system (directly at the air-liquid interface) in a culture medium from day 0 to day 4 for a complete differentiation. The culture is then continued from day 4 to day 14 in this same medium but without bovine pituitary extract (BPE). The test preparations were administered in the […] from day 4 to day 14. The medium and the test preparations are each added on day 4, day 7 and day 11. DMSO and THF are tested in parallel and IBMX (100 μM) is used as the positive reference.
# After embedding in paraffin, a Fontana-Masson staining of the tissue sections is performed. The microscope slides are covered with a special medium and examined using a light microscope of the Leica DM2000 type with a digital camera. After staining, images are recorded and a quantification is performed by image analysis (on the basis of 12 images). For quantification of the melanin content in each image, the Leica QWin3 software is used. Two measurements are carried out. The first measurement gives the total intensity of the coloration, i.e., a lighter or darker melanin is reflected. The second measurement relates to the marked image area, i.e., the area of the epidermis containing the melanin. In these measurements all cell layers except the stratum corneum are included.
# The procedure used was the same as that carried out in example 1 and 2. After determining the cytotoxic concentrations, substance (Ia) is tested at 8 μM, substance (Ib) at 40 μM (solvent: 0.1% THF) and substance (IIa) at 20 μM (solvent: 0.1% DMSO).
# After determining the cytotoxic concentrations of these substances, substance (Ib) is tested at 40 μM in DMSO (0.1%), substance (IIa) is tested at 20 μM in DMSO (0.1%), the mixture of (Ib)/(IIa) is tested at 40/20 μM in DMSO (0.1% and rhamnose is tested at 40 μM in THF (0.2%).
# [1] = first experiment, Ia 8 μM, Ib 40 μM vs THF, IIa 20 μM vs DMSO
# [2] = second experiment, Ib 40 μM and IIa 20 μM vs DMSO, mixture 40/20 μM, rhamnose 40 μM
SMILES,"Change of melanin content / pigmentation, in words [1]","Change of melanin content / pigmentation, in words [2]",further results
"Cc1cc(=O)c2c(O[C@@H]3O[C@@H](C)[C@H](O)[C@@H](O)[C@H]3O)cc(O)cc2o1 [Substance (IIa), 5-[(6-deoxy-α-L-mannopyranosyl)oxy]-7-hydroxy-2-methyl-4H-1-benzopyran-4-one]",significant increase,significant increase,"Quantification after Fontana-Masson staining, relative to the untreated controls (first experiment, 20 μM, solvent 0.1% DMSO, day 4 to day 14): 143% (p < 0.05); Quantification after Fontana-Masson staining, relative to the untreated controls (second experiment, 20 μM in DMSO (0.1%)): 147% (p < 0.05)"
"Cc1cc(=O)c2c(O)cc(O[C@@H]3O[C@H](CO)[C@@H](O)[C@H](O)[C@H]3O)cc2o1 [Substance (Ia), 7-(β-D-glucopyranosyloxy)-5-hydroxy-2-methyl-4H-1-benzopyran-4-one]",unambiguous tendency to increase pigmentation,–,"Quantification after Fontana-Masson staining, relative to the untreated controls (first experiment, 8 μM, day 4 to day 14): 125%"
"CC(C)Cn1c(=O)n(C)c(=O)c2[nH]cnc21 [IBMX, reference compound]",significant increase,significant increase,"Quantification after Fontana-Masson staining, relative to the untreated controls (first experiment, IBMX 100 μM, positive reference, day 4 to day 14): 152% (p < 0.05); Quantification after Fontana-Masson staining, relative to the untreated controls (second experiment, IBMX 100 μM, positive reference): 150% (p < 0.01)"
"C[C@H](O)[C@H](O)[C@@H](O)[C@@H](O)C=O [Rhamnose, rhamnose, reference compound]",–,tendency to increase melanin synthesis is only faintly pronounced,"Quantification after Fontana-Masson staining, relative to the untreated controls (second experiment, 40 μM in THF (0.2%)): 109%"
"Cc1cc(=O)c2c(O)cc(O[C@@H]3O[C@@H](C)[C@H](O)[C@@H](O)[C@H]3O)cc2o1 [Substance (Ib), 7-[(6-deoxy-α-L-mannopyranosyl)oxy]-5-hydroxy-2-methyl-4H-1-benzopyran-4-one]",significant increase,significant increase,"Quantification after Fontana-Masson staining, relative to the untreated controls (first experiment, 40 μM, solvent 0.1% THF, day 4 to day 14): 174% (p < 0.05); Quantification after Fontana-Masson staining, relative to the untreated controls (second experiment, 40 μM in DMSO (0.1%)): 167% (p < 0.01)"
